Our source for the LD50 and ED50 values is patent US3962249A, “1-(3-Phenylpropyl)-4-furoylpiperazine derivatives” (Kyorin Seiyaku Kabushiki Kaisha, priority 1974, dated 1976).

A short description of data set [1]: acute toxicity, LD50 in mice by subcutaneous injection (Up and Down method). It is filed as in vivo. The conditions noted are these: mouse, sc, drugs dissolved in physiological saline. As for the experimental part:
**) LD50 in mice by subcutaneous injection of the drugs (calculated
by the Up and Down method). Drugs are dissolved in physiological saline

Data set [2] deals with acetic acid-induced writhing. Briefly: inhibition of acetic acid-induced writhing counts in mice (analgesic effect). It is filed as in vivo. The settings on record: Mus musculus, read-out: ED50 (50% Effective dose). (In general: In writhing tests, fewer writhes than in controls are read as antinociception.)

As usually defined, the LD50 is the dose at which mortality reaches 50%. A lower LD50 goes with a more toxic substance. What is called ED50 is the dose that gives a 50% effect, or the effect in half of the subjects.

`C[C@@H]1CN(CCCc2ccccc2)[C@@H](C)CN1C(=O)c1ccco1.Cl` (relative stereo) [Example 2, trans-1-(3-Phenylpropyl)-2,5-dimethyl-4-(2-furoyl)-piperazine hydrochloride] registered an LD50 in data set [1] above 500 mg/kg. Further, the ED50 in data set [2] came out at 1.52 mg/kg.

The compound `Cc1ccccc1CCCN1C[C@@H](C)N(C(=O)c2ccco2)C[C@@H]1C.Cl` (relative stereo) [Example 15, trans-1-[3-(o-Methylphenyl)propyl]-2,5-dimethyl-4-(2-furoyl)piperazine hydrochloride] yielded an LD50 in data set [1] above 750 mg/kg. Further, the ED50 in data set [2] came to 1 mg/kg.

`Cc1cccc(CCCN2C[C@@H](C)N(C(=O)c3ccco3)C[C@@H]2C)c1.Cl` (relative stereo) [Example 16, trans-1-[3-(m-Methylphenyl)propyl]-2,5-dimethyl-4-(2-furoyl)piperazine hydrochloride] had an LD50 in data set [1] above 500 mg/kg. Further, the ED50 in data set [2] was found to be 1.05 mg/kg.

As to `Cl.O=C(c1ccco1)N1CCN(CCCc2ccccc2)CC1` [Example 1, 1-(3-Phenylpropyl)-4-(2-furoyl)piperazine hydrochloride], in data set [1], the LD50 amounted to 400 mg/kg. For the same compound, the ED50 in data set [2] is 7.8 mg/kg.

`CC1CN(C(=O)c2ccco2)CCN1CCCc1ccccc1` (stereo not drawn) [Example 3, 1-(3-Phenylpropyl)-2-methyl-4-(2-furoyl)piperazine] returned an LD50 in data set [1] of 300 mg/kg. The ED50 in data set [2] was 5.17 mg/kg.

Compound `CC1CN(CCCc2ccccc2)CCN1C(=O)c1ccco1.Cl` (stereo not drawn) [Example 4, 1-(3-Phenylpropyl)-3-methyl-4-(2-furoyl)piperazine hydrochloride] displayed an LD50 in data set [1] above 750 mg/kg. In data set [2], the 50% effective dose (ED50) was found to be 3.42 mg/kg.

In data set [1], `CC1(C)CN(CCCc2ccccc2)CCN1C(=O)c1ccco1.Cl` [Example 5, 1-(3-Phenylpropyl)-3,3-dimethyl-4-(2-furoyl)piperazine hydrochloride] showed an LD50 above 500 mg/kg. In addition, the ED50 in data set [2] was 2.2 mg/kg.

In data set [1], `Cc1ccccc1CCCN1CCN(C(=O)c2ccco2)CC1.Cl` [Example 7, 1-[3-(o-Methylphenyl)propyl]-4-(2-furoyl)piperazine hydrochloride] had an LD50 of 400 mg/kg. Also, in data set [2], the ED50 was found to be 3 mg/kg.

In turn, `Cc1cccc(CCCN2CCN(C(=O)c3ccco3)CC2)c1.Cl` [Example 8, 1-[3-(m-Methylphenyl)propyl]-4-(2-furoyl)piperazine hydrochloride] yielded an LD50 in data set [1] of 350 mg/kg. For the same compound, in data set [2], the ED50 worked out at 3.35 mg/kg.

Turning to `CCOc1ccc(CCCN2CCN(C(=O)c3ccco3)CC2)cc1.Cl` [Example 9, 1-[3-(p-Ethoxyphenyl)propyl]-4-(2-furoyl)piperazine hydrochloride], the LD50 in data set [1] was determined as 400 mg/kg. Further, in data set [2], the ED50 came out at 8.85 mg/kg.

`Cc1occc1C(=O)N1CCN(CCCc2ccccc2)CC1.Cl` [Example 11, 1-(3-Phenylpropyl)-4-(2-methyl-3-furoyl)piperazine hydrochloride] had a median lethal dose (LD50) in data set [1] of 170 mg/kg. Besides, the ED50 in data set [2] was 1.81 mg/kg.

In data set [1], `Cc1cc(C(=O)N2CCN(CCCc3ccccc3)CC2)co1.Cl` [Example 12, 1-(3-Phenylpropyl)-4-(5-methyl-3-furoyl)piperazine hydrochloride] returned an LD50 of 200 mg/kg. The ED50 in data set [2] worked out at 3.93 mg/kg.
